This note sets out measurements from publication PMC11118832 (Biomolecules, 2024).

Square brackets hold non-standard residues; d marks the D form. Peptide text beside a SMILES is read from it. 1Nal = N[C@@H](Cc1cccc2ccccc12)C(=O)O; pS = N[C@@H](COP(=O)(O)O)C(=O)O; Lys(Me) = CNCCCC[C@H](N)C(=O)O; hLeu = CC(C)CC[C@H](N)C(=O)O; Nle = CCCC[C@H](N)C(=O)O Where only a bound is given, the exact number is not on record here.

The target in the first test is T1, PD-1/PD-L1 (Homo sapiens, UniProt Q15116).
T1 construct: this kit uses ectodomains of PD-1 and PD-L1 that are expressed with orthogonal fusion tags (Tag-1 and Tag-2); purchased CisBio (currently Perkin-Elmer, Bedford, MA)
As to the kind of experiment: In vitro time-resolved FRET PD-1/PD-L1 binding assay (CisBio kit). The settings on record: CisBio PD-1/PD-L1 binding kit, TR FRET, 96-well, 4-fold serial dilutions in triplicate, freshly dissolved peptides; read-out: IC50, inhibition of PD-1/PD-L1 binding (TR FRET assay). As to the method:
Commercial PD-1/PD-L1 binding assay kit (CisBio, currently Perkin-Elmer, Bedford, MA) for time resolve fluorescent energy transfer (FRET) was used to assess peptides binding to PD-1. The assay for peptide screening was performed in a 96-well format (normal pressure), starting with 4-fold serial dilutions of each peptide in triplicate. No-peptide triplicate wells were used to assess fluorescent energy transfer in the absence of inhibition, and no-PD-1/PD-L1 triplicate wells were used to assess the background fluorescent energy transfer in the absence of PD-1/PD-L1 complexes. More detailed concentration dependences were obtained for selected peptides. Only freshly dissolved peptides were used in the assay. Various QSAR (quantitative structure activity relationship) hypotheses were tested by synthesizing batches of 10–12 peptides. In total, over one hundred candidates in ten iterations were screened for their ability to inhibit in vitro PD-1/PD-L1 binding using the commercial PD-1/PD-L1 binding assay kit (CisBio, currently Perkin-Elmer). Briefly, this kit uses ectodomains of PD-1 and PD-L1 that are expressed with orthogonal fusion tags (Tag-1 and Tag-2). It also includes two antibodies to selectively interact with these tags. The antibody against one tag is labeled with fluorescent moiety, which serves as a donor, while the other antibody is labeled with fluorescent moiety, which serves as an acceptor in fluorescent resonance energy transfer (FRET). When the complex is formed and probed with both anti-Tag-1 and anti-Tag-2 antibodies, donor and acceptor are sufficiently close, and FRET can be detected in a time-resolved (TR) manner. Inhibitors of PD-1/PD-L1 interactions prevent complex formation, leading to a decrease in TR FRET in a concentration-dependent manner, as shown in Figure 2 for four representative peptide inhibitors. Initial fourfold dilutions are exemplified by data for peptides B5.11 and B5.6 (panels A and B); examples of the more detailed follow-up concentration dependences are shown for peptides B2.4 and B2.22 (panels C and D). The potency of the inhibitors is then characterized by IC50, a concentration that inhibits TR FRET by 50%, allowing for a facile comparison of different inhibitors (Figure 2E).
(TR-FRET usually uses a lanthanide donor and a delayed reading to cut background.)
Turning to `CCCC[C@H](NC(C)=O)C(=O)N[C@H](C(=O)N[C@@H](CC(C)C)C(=O)N[C@H](C(=O)N[C@H](C(=O)N[C@H](C(=O)NCC(=O)N[C@@H](C)C(=O)N[C@@H](C)C(=O)N[C@@H](Cc1c[nH]c2ccccc12)C(=O)N[C@@H](CC(=O)O)C(=O)N[C@@H](Cc1ccc(O)cc1)C(=O)N[C@@H](CCCCN)C(=O)N[C@@H](Cc1ccc(O)cc1)C(N)=O)C(C)C)[C@@H](C)CC)C(C)C)C(C)C` [B5.6] (Ac-[Nle]VLVIVGAAWDYKY-NH2), the IC50 stood at 0.2 µM.
For Ac-DVIDGAAWDYKY-NH2 [B5.11], the IC50 is 0.05 µM.

Still in this test, the particulars now being: CisBio PD-1/PD-L1 binding kit, TR FRET, 96-well, serial dilutions in triplicate; NI = no inhibition at maximum concentration tested (* 5 μM, ** 50 μM); read-out: EC50 (Supplementary Table S1; inhibition of PD-1/PD-L1 binding by in vitro TR-FRET assay).
On to `CCCC[C@H](NC(C)=O)C(=O)N[C@H](C(=O)N[C@@H](CC(C)C)C(=O)N[C@H](C(=O)N[C@H](C(=O)N[C@H](C(=O)NCC(=O)N[C@@H](C)C(=O)N[C@@H](C)C(=O)N[C@@H](Cc1c[nH]c2ccccc12)C(=O)N[C@@H](CC(=O)O)C(=O)N[C@@H](Cc1ccc(O)cc1)C(=O)N[C@@H](CCCCN)C(=O)N[C@@H](Cc1ccc(O)cc1)C(N)=O)C(C)C)[C@@H](C)CC)C(C)C)C(C)C` [B5.6] (Ac-[Nle]VLVIVGAAWDYKY-NH2), for which the 50% effective concentration (EC50) (usually the concentration giving half of the maximal effect) stood at 0.2 µM.
Turning to `CCCC[C@H](NC(=O)[C@H](CC(=O)O)NC(C)=O)C(=O)N[C@H](C(=O)N[C@H](C(=O)NCC(=O)N[C@@H](C)C(=O)N[C@@H](C)C(=O)N[C@@H](Cc1c[nH]c2ccccc12)C(=O)N[C@@H](CC(=O)O)C(=O)N[C@@H](Cc1ccc(O)cc1)C(=O)N[C@@H](CCCCN)C(=O)N[C@@H](Cc1ccc(O)cc1)C(N)=O)C(C)C)[C@@H](C)CC` [B5.7] (Ac-D[Nle]IVGAAWDYKY-NH2), the EC50 is over 5 µM.
On the same count and under the same terms, with `CCCC[C@H](NC(=O)[C@@H](NC(=O)[C@H](CC(=O)O)NC(C)=O)C(C)C)C(=O)N[C@H](C(=O)NCC(=O)N[C@@H](C)C(=O)N[C@@H](C)C(=O)N[C@@H](Cc1c[nH]c2ccccc12)C(=O)N[C@@H](CC(=O)O)C(=O)N[C@@H](Cc1ccc(O)cc1)C(=O)N[C@@H](CCCCN)C(=O)N[C@@H](Cc1ccc(O)cc1)C(N)=O)C(C)C` [B5.8] (Ac-DV[Nle]VGAAWDYKY-NH2) the figure was over 5 µM.
The same measure, in the same setting: to `CC[C@H](C)[C@H](NC(=O)[C@@H](NC(=O)[C@H](CC(=O)O)NC(C)=O)C(C)C)C(=O)N[C@H](C(=O)NCC(=O)N[C@@H](C)C(=O)N[C@@H](C)C(=O)N[C@@H](Cc1cccc2ccccc12)C(=O)N[C@@H](CC(=O)O)C(=O)N[C@@H](Cc1ccc(O)cc1)C(=O)N[C@@H](CCCCN)C(=O)N[C@@H](Cc1ccc(O)cc1)C(N)=O)C(C)C` [B6.1] (Ac-DVIVGAA[1Nal]DYKY-NH2) belongs over 5 µM; to `CC[C@H](C)[C@H](NC(=O)[C@@H](NC(=O)[C@H](CC(C)C)NC(C)=O)C(C)C)C(=O)N[C@H](C(=O)NCC(=O)N[C@@H](C)C(=O)N[C@@H](C)C(=O)N[C@@H](Cc1c[nH]c2ccccc12)C(=O)N[C@@H](COP(=O)(O)O)C(=O)N[C@@H](Cc1ccc(O)cc1)C(=O)N[C@@H](CCCCN)C(=O)N[C@@H](Cc1ccc(O)cc1)C(N)=O)C(C)C` [B6.2] (Ac-LVIVGAAW[pS]YKY-NH2), over 5 µM.
Still for that read-out and setting: with `CC[C@H](C)[C@H](NC(=O)[C@@H](NC(=O)[C@H](CC(=O)O)NC(C)=O)C(C)C)C(=O)N[C@H](C(=O)NCC(=O)N[C@@H](C)C(=O)N[C@@H](C)C(=O)N[C@@H](Cc1c[nH]c2ccccc12)C(=O)N[C@@H](CC(=O)O)C(=O)N[C@@H](CCCCNC)C(=O)N[C@@H](CCCCN)C(=O)N[C@@H](Cc1ccc(O)cc1)C(N)=O)C(C)C` [B6.3] (Ac-DVIVGAAWD[Lys(Me)]KY-NH2) the figure was over 5 µM.
As to `CC(=O)N[C@@H](CC(=O)O)C(=O)N[C@H](C(=O)N[C@@H](CCC(C)C)C(=O)N[C@@H](CC(=O)O)C(=O)NCC(=O)N[C@@H](C)C(=O)N[C@@H](C)C(=O)N[C@@H](Cc1c[nH]c2ccccc12)C(=O)N[C@@H](CC(=O)O)C(=O)N[C@@H](Cc1ccc(O)cc1)C(=O)N[C@@H](CCCCN)C(=O)N[C@@H](Cc1ccc(O)cc1)C(N)=O)C(C)C` [B8.14] (Ac-DV[hLeu]DGAAWDYKY-NH2), the EC50 is over 5 µM.
As to `CC[C@H](C)[C@H](NC(=O)[C@H](CCC(C)C)NC(=O)[C@H](CC(=O)O)NC(C)=O)C(=O)N[C@@H](CC(=O)O)C(=O)NCC(=O)N[C@@H](C)C(=O)N[C@@H](C)C(=O)N[C@@H](Cc1c[nH]c2ccccc12)C(=O)N[C@@H](CC(=O)O)C(=O)N[C@@H](Cc1ccc(O)cc1)C(=O)N[C@@H](CCCCN)C(=O)N[C@@H](Cc1ccc(O)cc1)C(N)=O` [B8.18] (Ac-D[hLeu]IDGAAWDYKY-NH2), the EC50 is over 5 µM.
In the case of `CC[C@H](C)[C@H](NC(=O)[C@@H](NC(=O)[C@@H](CC(=O)O)NC(C)=O)C(C)C)C(=O)N[C@@H](CC(=O)O)C(=O)NCC(=O)N[C@@H](C)C(=O)N[C@@H](C)C(=O)N[C@@H](Cc1c[nH]c2ccccc12)C(=O)N[C@@H](CC(=O)O)C(=O)N[C@@H](Cc1ccc(O)cc1)C(=O)N[C@@H](CCCCN)C(=O)N[C@@H](Cc1ccc(O)cc1)C(N)=O` [B8.19] (Ac-[dD]VIDGAAWDYKY-NH2), the EC50 is over 5 µM.
As to `CC(=O)N[C@H](CC(=O)O)C(=O)N[C@@H](C)C(=O)N[C@@H](Cc1c[nH]c2ccccc12)C(=O)N[C@@H](CC(=O)O)C(=O)N[C@@H](Cc1ccc(O)cc1)C(=O)N[C@@H](CCCCN)C(=O)N[C@@H](Cc1ccc(O)cc1)C(N)=O` [B9.3] (Ac-[dD]AWDYKY-NH2), the half-maximal effective concentration (EC50) was over 5 µM.
Regarding `CC(=O)N[C@H](CCC(=O)O)C(=O)N[C@@H](C)C(=O)N[C@@H](Cc1c[nH]c2ccccc12)C(=O)N[C@@H](CC(=O)O)C(=O)N[C@@H](Cc1ccc(O)cc1)C(=O)N[C@@H](CCCCN)C(=O)N[C@@H](Cc1ccc(O)cc1)C(N)=O` [B9.5] (Ac-[dE]AWDYKY-NH2), the EC50 was over 5 µM.
In the case of `CC(=O)N[C@H](CC(=O)O)C(=O)NCC(=O)N[C@@H](C)C(=O)N[C@@H](C)C(=O)N[C@@H](Cc1c[nH]c2ccccc12)C(=O)N[C@@H](CC(=O)O)C(=O)N[C@@H](Cc1ccc(O)cc1)C(=O)N[C@@H](CCCCN)C(=O)N[C@@H](Cc1ccc(O)cc1)C(N)=O` [B9.8] (Ac-[dD]GAAWDYKY-NH2), the half-maximal effective concentration (EC50) was over 50 µM.
Same read-out and setting: with `CC(=O)N[C@H](CC(=O)O)C(=O)N[C@@H](C)C(=O)N[C@@H](C)C(=O)N[C@@H](Cc1c[nH]c2ccccc12)C(=O)N[C@@H](CC(=O)O)C(=O)N[C@@H](Cc1ccc(O)cc1)C(=O)N[C@@H](CCCCN)C(=O)N[C@@H](Cc1ccc(O)cc1)C(N)=O` [B9.9] (Ac-[dD]AAWDYKY-NH2) the figure was over 5 µM; with Ac-AWDYKY-NH2 [B2.19], over 50 µM; with Ac-DAAWDYKY-NH2 [B9.1], over 5 µM.
For Ac-DAIDGAAWDYKY-NH2 [B8.2], the EC50 is over 5 µM.
On the same count and under the same terms, to Ac-DAWDYKY-NH2 [B9.2] belongs over 5 µM; to Ac-DDIVGAAWDYKY-NH2 [B7.6], over 5 µM.
Consider Ac-DGAAWDYKY-NH2 [B9.0], for which the EC50 is over 5 µM.
The same measure, in the same setting: to Ac-DIIDGAAWDYKY-NH2 [B8.16] belongs over 5 µM; to Ac-DIIVGAAWDYKY-NH2 [B5.10], over 5 µM.
In the case of Ac-DLIDGAAWDYKY-NH2 [B8.15], the EC50 was over 5 µM.
Same read-out and setting: with Ac-DVIDGAAHDYKY-NH2 [B8.21] the figure was over 5 µM; with Ac-DVIDGAAWDRKY-NH2 [B8.22], over 5 µM; with Ac-DVIDGAAWDYK-NH2 [B8.24], over 5 µM.
Still for that read-out and setting: to Ac-DVIDGAAWDYKR-NH2 [B8.23] belongs over 5 µM; to Ac-DVIDGAAWDYKY-NH2 [B5.11], 0.05 µM.
Regarding Ac-DVIDGAAWDYKYLQ-NH2 [B7.8], the EC50 is over 5 µM.
Still for that read-out and setting: with Ac-DVIDGAAWDYKYLT-NH2 [B7.9] the figure was over 5 µM; with Ac-DVIDGAAWDYRY-NH2 [B8.7], 6.8 µM.
On the same count and under the same terms, to Ac-DVIDGADWDYKY-NH2 [B8.20] belongs over 5 µM; to Ac-DVIDGPAWDYKY-NH2 [B8.11], 5.8 µM; to Ac-DVIDPAAWDYKY-NH2 [B8.12], over 5 µM.
The same measure, in the same setting: with Ac-DVIEGAAWDYKY-NH2 [B8.1] the figure was 2.2 µM.
With Ac-DVINGAAWDYKY-NH2 [B8.4], the EC50 is over 5 µM.
